Here are results for five molecules from patent publication US10662187B2, “Bruton's tyrosine kinase inhibitors” (Zibo Biopolar Changsheng Pharmaceutical Co. Ltd., priority 2016, dated 2020).

Molecules are shown by their SMILES. Where two headings read alike, the source gives them in different places.

One assay concerns the target LYN (Homo sapiens (Human), UniProt P07948). In words: LYN kinase assay (HTRF). Type of assay: biochemical. As to conditions: [ATP]=20 μM, LYN=0.12 nM. On the procedure: (§1) Btk Kinase Assay and Other Kinases Assay Btk kinase activity was determined using a homogenous time resolved fluorescence (HTRF) methodology. Measurements were performed in a reaction volume of 15 μL using 384-well assay plates. Kinase enzyme, inhibitor, ATP and 1 μM peptide substrate were incubated in a reaction buffer compose of Hepes 50 mM (pH7.0), NaN3 0.02%, BSA 0.01%, Orthocanadate 0.1 mM. After one hour, the kinase reaction was quenched by the addition of […] antibody and XL-665 in 1×Detection buffer containing 60 mM EDTA (Cisbio), and the mixture was allowed to incubate for one hour. The HTRF signal was measured on a multimode plate reader (EnVision® Multilabel Reader, Perkin Elmer) with an excitation wavelength (λEx) of 330 nm and detection wavelengths (λEm) of 615 and 665 nm. Activity was determined by the ratio of the fluorescence at 665 nm to that at 615 nm. For each compound, enzyme activity as measured at various concentrations of compound, Negative control reactions were performed in the absence of inhibitor in two replicates and eight no enzyme controls were used to determine baseline fluorescence levels. I[…] were obtained according to the equation: […] For LYN assay, [ATP]=20 μM, LYN=0.12 nM. For LCK assay, [ATP]=20 μM, LCK=0.2 nM. For BLK assay, [ATP]=20 μM, BLK=0.6 nM.
In general terms: TR-FRET usually uses a lanthanide donor and a delayed reading to cut background.

In another assay the target is LCK (Homo sapiens (Human), UniProt P06239). The experiment in a line: LCK kinase assay (HTRF). The class given is biochemical. To be noted: [ATP]=20 μM, LCK=0.2 nM. How it is done: as §1
A further assay concerns the target EGFR (Homo sapiens (Human), UniProt P00533). In words: EGFR kinase assay. The class given is biochemical. On the procedure: Btk Kinase Assay and Other Kinases Assay Btk kinase activity was determined using a homogenous time resolved fluorescence (HTRF) methodology. Measurements were performed in a reaction volume of 15 μL using 384-well assay plates. Kinase enzyme, inhibitor, ATP and 1 μM peptide substrate were incubated in a reaction buffer compose of Hepes 50 mM (pH7.0), NaN3 0.02%, BSA 0.01%, Orthocanadate 0.1 mM. After one hour, the kinase reaction was quenched by the addition of […] antibody and XL-665 in 1×Detection buffer containing 60 mM EDTA (Cisbio), and the mixture was allowed to incubate for one hour. The HTRF signal was measured on a multimode plate reader (EnVision® Multilabel Reader, Perkin Elmer) with an excitation wavelength (λEx) of 330 nm and detection wavelengths (λEm) of 615 and 665 nm. Activity was determined by the ratio of the fluorescence at 665 nm to that at 615 nm. For each compound, enzyme activity as measured at various concentrations of compound, Negative control reactions were performed in the absence of inhibitor in two replicates and eight no enzyme controls were used to determine baseline fluorescence levels. I[…] were obtained according to the equation: […]

Assay [1] addresses T1, BTK (Homo sapiens (Human), UniProt Q06187). The experiment in a line: Btk kinase assay (HTRF). As to conditions: [ATP]=80 μM, BTK=3.4 nM. The class given is biochemical. The method in brief:
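HTRF read-out with enzyme, inhibitor, ATP and 1 μM peptide substrate in 50 mM Hepes pH 7.0, 0.02% NaN3, 0.01% BSA, 0.1 mM orthovanadate. Activity measured across compound concentrations against no-inhibitor controls, with no-enzyme wells as baseline.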
Target sequence in this assay (Q06187 whole entry, species assumed): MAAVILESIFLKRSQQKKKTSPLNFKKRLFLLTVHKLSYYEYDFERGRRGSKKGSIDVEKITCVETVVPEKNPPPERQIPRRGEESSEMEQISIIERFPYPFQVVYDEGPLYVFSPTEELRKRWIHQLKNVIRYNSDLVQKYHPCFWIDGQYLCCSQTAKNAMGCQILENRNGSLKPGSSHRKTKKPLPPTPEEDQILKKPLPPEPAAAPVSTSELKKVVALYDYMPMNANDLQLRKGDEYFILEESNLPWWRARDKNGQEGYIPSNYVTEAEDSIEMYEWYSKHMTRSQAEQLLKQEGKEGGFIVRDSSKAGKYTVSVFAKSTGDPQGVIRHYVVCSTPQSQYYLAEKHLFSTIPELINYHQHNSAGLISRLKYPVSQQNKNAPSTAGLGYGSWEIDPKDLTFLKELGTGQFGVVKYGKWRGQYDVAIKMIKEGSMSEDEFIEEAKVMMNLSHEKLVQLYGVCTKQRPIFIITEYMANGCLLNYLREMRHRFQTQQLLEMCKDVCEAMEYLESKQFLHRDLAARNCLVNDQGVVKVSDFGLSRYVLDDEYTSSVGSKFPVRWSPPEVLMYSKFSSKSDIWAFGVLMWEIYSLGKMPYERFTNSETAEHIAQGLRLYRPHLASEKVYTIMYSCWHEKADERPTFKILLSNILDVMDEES

In the next assay the target is BLK (Homo sapiens (Human), UniProt P51451). In words: BLK kinase assay (HTRF). Type of assay: biochemical. As to conditions: [ATP]=20 μM, BLK=0.6 nM. On the procedure: as §1
The target of assay [2] is T1, BTK. In words: Btk occupancy in cellular assays (PCI-33380 labeling, Jeko-1 cells). Type of assay: cell-based. To be noted: 1.5 h pre-incubation with compound, PCI-33380 5 μM 1 h. On the procedure: Btk Occupancy in Cellular Assays
For PCI-33380 labeling of human B cells, 10^6 Jeko-1 cells were pre-incubated with compound for 1.5 h before labeling. Then cells were treated with PCI-33380 at 5 μM for 1 h. Washed, lysed in Ripa buffer containing sample reducing agent, and analyzed by SDS/PAGE and fluorescent gel scanning using a Typhoon scanner 9500 (GE Healthcare) (Ex, 532 nm; Em, 555 nm). The gel was then blotted and total Btk levels detected by standard Western blot with Btk antibody (CST).
Target sequence in this assay (Q06187 whole entry): as the sequence (Q06187 whole entry, species assumed) above

In assay [3] the target is Btk (Mus musculus (Mouse), UniProt P35991). The experiment in a line: Btk occupancy in vivo (PBMCs or splenocytes, PCI-33380 labeling). To be noted: after 4 hours, Babc/L mice. On the procedure: For analysis of Btk occupancy in Babc/L mice following oral dosing of compounds after 4 hours. Isolating peripheral blood mononuclear cells (PBMCs) with mouse peripheral blood separation kit (Hao Yang Biological Manufacture CO., LTD, Tianjin) were collected from Babc/L mice (1 ml blood from two mice). Spleens were processed to splenocytes followed by 5 min incubation in red blood cell lysing buffer (from mouse peripheral blood separation kit). PBMCs or splenocytes were then PCI-33380-labeled and lysates analyzed by fluorescent gel scanning as described in cellular assays.
Chain of Btk (P35991 whole entry): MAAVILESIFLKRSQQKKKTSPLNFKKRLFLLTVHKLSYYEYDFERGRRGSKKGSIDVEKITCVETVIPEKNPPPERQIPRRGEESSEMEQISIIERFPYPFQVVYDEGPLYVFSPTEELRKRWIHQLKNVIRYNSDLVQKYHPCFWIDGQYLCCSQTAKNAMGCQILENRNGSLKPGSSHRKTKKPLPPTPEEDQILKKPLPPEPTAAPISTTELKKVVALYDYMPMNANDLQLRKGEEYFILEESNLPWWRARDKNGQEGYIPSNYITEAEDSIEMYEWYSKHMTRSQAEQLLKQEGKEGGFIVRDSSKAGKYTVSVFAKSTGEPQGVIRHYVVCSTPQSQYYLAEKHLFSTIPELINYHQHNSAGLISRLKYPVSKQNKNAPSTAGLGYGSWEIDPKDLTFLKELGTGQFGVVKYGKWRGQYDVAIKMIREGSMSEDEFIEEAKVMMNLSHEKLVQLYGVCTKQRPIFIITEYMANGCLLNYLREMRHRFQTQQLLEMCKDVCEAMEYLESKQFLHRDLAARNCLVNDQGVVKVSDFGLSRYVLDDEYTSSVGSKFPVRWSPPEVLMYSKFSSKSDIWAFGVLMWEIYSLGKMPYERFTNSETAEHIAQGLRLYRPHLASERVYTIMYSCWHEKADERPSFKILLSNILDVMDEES

Chain of LCK (P06239 whole entry, species assumed): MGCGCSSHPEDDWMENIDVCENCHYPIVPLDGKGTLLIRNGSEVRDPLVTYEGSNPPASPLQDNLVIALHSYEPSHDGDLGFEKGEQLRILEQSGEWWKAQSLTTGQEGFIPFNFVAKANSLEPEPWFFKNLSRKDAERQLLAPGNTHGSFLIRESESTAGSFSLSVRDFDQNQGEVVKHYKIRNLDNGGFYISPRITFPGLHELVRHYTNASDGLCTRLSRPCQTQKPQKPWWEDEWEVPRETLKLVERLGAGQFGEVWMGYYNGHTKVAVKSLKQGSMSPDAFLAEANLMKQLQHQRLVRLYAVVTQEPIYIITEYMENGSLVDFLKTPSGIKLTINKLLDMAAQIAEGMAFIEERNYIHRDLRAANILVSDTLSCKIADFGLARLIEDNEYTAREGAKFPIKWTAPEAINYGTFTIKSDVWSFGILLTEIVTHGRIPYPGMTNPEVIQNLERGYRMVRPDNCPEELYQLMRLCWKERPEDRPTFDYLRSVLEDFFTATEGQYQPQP
Chain of EGFR (P00533 25-1210, species assumed): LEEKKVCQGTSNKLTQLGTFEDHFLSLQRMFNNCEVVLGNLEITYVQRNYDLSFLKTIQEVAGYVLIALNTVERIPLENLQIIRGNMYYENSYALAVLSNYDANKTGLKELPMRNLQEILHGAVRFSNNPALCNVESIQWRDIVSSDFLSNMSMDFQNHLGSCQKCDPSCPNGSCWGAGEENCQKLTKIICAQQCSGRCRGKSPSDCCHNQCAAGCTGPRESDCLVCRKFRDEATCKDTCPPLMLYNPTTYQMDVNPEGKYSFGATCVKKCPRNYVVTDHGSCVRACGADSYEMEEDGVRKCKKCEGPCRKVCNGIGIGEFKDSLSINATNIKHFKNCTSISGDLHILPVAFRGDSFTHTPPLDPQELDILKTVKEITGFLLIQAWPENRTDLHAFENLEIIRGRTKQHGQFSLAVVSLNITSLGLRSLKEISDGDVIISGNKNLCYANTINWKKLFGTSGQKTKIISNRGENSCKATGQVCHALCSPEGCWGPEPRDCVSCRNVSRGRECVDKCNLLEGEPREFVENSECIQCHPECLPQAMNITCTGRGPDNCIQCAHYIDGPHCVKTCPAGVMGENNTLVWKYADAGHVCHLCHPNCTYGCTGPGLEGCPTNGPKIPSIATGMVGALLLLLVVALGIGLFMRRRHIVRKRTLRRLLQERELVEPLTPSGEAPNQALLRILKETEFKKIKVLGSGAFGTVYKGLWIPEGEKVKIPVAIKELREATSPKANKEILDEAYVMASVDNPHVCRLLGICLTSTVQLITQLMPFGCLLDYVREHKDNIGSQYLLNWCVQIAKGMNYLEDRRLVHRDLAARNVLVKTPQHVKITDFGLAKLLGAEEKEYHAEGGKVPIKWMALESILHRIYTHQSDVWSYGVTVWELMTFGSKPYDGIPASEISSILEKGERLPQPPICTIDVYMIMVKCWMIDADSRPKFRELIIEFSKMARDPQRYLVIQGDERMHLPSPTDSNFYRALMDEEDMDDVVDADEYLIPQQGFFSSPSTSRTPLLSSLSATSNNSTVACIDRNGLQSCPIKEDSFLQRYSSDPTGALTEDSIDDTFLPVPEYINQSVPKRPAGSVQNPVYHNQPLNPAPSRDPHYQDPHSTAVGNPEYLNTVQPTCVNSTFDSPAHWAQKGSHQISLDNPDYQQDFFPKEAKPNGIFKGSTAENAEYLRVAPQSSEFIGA
Chain of BLK (P51451 whole entry, species assumed): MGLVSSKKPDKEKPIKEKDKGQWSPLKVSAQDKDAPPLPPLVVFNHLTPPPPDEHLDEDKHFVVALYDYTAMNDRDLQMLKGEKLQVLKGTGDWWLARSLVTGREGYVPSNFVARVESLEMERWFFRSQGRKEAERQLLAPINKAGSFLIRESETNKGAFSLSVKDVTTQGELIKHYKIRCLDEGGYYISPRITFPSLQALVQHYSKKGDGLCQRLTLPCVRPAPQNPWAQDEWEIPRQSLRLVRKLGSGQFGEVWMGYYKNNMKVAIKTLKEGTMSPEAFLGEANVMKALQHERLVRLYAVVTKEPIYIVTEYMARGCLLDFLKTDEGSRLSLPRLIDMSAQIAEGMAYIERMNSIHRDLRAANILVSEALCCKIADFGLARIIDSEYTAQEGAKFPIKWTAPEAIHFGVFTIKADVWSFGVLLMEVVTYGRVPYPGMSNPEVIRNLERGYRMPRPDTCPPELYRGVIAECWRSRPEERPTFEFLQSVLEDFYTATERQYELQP
Chain of LYN (P07948 whole entry, species assumed): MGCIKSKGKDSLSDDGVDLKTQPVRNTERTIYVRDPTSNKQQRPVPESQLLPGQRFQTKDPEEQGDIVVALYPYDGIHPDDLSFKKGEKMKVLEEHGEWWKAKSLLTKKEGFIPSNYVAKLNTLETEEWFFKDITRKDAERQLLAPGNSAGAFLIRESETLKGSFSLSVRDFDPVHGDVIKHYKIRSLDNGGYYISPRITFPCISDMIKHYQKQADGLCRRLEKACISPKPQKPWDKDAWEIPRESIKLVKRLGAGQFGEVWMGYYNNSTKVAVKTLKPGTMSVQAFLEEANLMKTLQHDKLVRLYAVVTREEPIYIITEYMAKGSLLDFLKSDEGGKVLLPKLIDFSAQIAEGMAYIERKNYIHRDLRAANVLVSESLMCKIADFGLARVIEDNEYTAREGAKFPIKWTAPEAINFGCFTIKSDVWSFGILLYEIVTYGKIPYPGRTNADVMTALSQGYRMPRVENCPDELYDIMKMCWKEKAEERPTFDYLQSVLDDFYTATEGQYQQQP

Turning to `C=CC(=O)N1CC[C@@H](n2nc(-c3ccc(Oc4ccccc4)cc3)c3cnccc32)C1` [Compound 1, (R)-1-(3-(3-(4-phenoxyphenyl)-1H-pyrazolo[4,3-c]pyridin-1-yl)pyrrolidin-1-yl)prop-2-en-1-one], the IC50 against LYN was at most 10000 nM; on LCK, 1000 to 10000 nM; on EGFR it was 100 to 1000 nM; at BTK [1] (read-out: BTK IC50), under 10 nM; at BTK [1] (read-out: BTK Inhibition), under 10 nM; on BLK, under 10 nM.

As to `C=CC(=O)N1CC[C@@H](n2nc(-c3ccc(Oc4cccc(F)c4Cl)cc3)c3cnccc32)C1` [Compound 4, (R)-1-(3-(3-(4-(2-chloro-3-fluorophenoxy)phenyl)-1H-pyrazolo[4,3-c]pyridin-1-yl)pyrrolidin-1-yl)prop-2-en-1-one], at BTK [2], the “concentration sufficient to fully occupy the active site of Btk” value (shortened to “concentration sufficient”) was found to be 100 nM. Further, on BTK [1] (read-out: BTK Inhibition), the IC50 was under 10 nM. Also, at Btk [3] (10 mg/kg single oral dose), the “Btk occupancy in vivo” value is “full occupancy”.

In the case of `C=CC(=O)N1CCC[C@@H](n2nc(-c3ccc(Oc4cccc(OC)c4F)cc3)c3cncc(OC)c32)C1` [Compound 6, (R)-1-(3-(3-(4-(2-fluoro-3-methoxyphenoxy)phenyl)-7-methoxy-1H-pyrazolo[4,3-c]pyridin-1-yl)piperidin-1-yl)prop-2-en-1-one], the IC50 against LYN is 1000 to 10000 nM; against LCK, 1000 to 10000 nM; at EGFR, 100 to 1000 nM; at BTK [1] (read-out: BTK IC50), under 10 nM; on BTK [1] (read-out: BTK Inhibition) it was under 10 nM; against BLK, 10 to 100 nM.

For the molecule `C=CC(=O)N1CCC[C@@H](n2nc(-c3ccc(Oc4cccc(OC)c4F)cc3)c3cnccc32)C1` [Compound 71, (R)-1-(3-(3-(4-(2-fluoro-3-methoxyphenoxy)phenyl)-1H-pyrazolo[4,3-c]pyridin-1-yl)piperidin-1-yl)prop-2-en-1-one], the “concentration sufficient” value on BTK [2] is on record as 100 nM. For the same molecule, at BTK [1] (read-out: BTK Inhibition), the IC50 was under 10 nM. Further, the “Btk occupancy in vivo” value on Btk [3] (10 mg/kg single oral dose) was “full occupancy”.

For the molecule `C=CC(=O)N1CCC[C@@H](n2nc(-c3ccc(Oc4cccc(OC)c4F)cc3)c3cncc(OCC)c32)C1` [Compound 73, (R)-1-(3-(7-ethoxy-3-(4-(2-fluoro-3-methoxyphenoxy)phenyl)-1H-pyrazolo[4,3-c]pyridin-1-yl)piperidin-1-yl)prop-2-en-1-one], the “concentration sufficient” value at BTK [2] is given as 100 nM. In addition, the IC50 at BTK [1] (read-out: BTK Inhibition) is under 10 nM. Besides, at Btk [3] (5 mg/kg single oral dose), the “Btk occupancy in vivo” value is “full occupancy”.
